Data reported in ChEMBL document CHEMBL1909046, “DrugMatrix in vitro pharmacology data”.
pIC50, pKi: −log10 of the molar value.

What was measured:
Insulin receptor = Insulin receptor (Rattus norvegicus, UniProt P15127); assay type: cell membranes, Wistar, Liver, Membrane; further: in other assays of this panel Not Active means under 50% inhibition at 10 µM
Thromboxane-A synthase = target: T1, Thromboxane-A synthase (Homo sapiens, UniProt P24557); assay: biochemical; assay type: tissue-based, Platelet; details: for IC50: platelet; for pIC50: read-out: IC50;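 on all read-outs here: enzyme inhibition assay with PGH2 supplied as substrate; in other assays of this panel Not Active means under 50% inhibition at 10 µM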
T1 sequence (P24557 whole entry): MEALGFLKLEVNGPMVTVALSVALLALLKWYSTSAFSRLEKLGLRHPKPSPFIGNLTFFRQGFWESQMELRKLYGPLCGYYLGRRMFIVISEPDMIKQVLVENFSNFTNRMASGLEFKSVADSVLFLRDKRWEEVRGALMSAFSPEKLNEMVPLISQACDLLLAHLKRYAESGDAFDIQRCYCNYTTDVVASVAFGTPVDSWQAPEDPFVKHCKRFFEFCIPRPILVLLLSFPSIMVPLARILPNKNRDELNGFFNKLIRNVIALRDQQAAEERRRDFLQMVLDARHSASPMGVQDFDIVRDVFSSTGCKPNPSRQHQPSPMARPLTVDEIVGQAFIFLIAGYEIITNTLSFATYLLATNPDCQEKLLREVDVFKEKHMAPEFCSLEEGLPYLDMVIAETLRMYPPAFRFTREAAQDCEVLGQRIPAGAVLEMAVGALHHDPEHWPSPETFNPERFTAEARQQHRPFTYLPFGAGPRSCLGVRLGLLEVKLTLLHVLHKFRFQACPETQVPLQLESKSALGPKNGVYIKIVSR

[1] = target: Protein phosphatase 3 catalytic subunit alpha (Homo sapiens, UniProt Q08209); set-up: species or system Escherichia coli;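 further: inhibition of calcineurin (PP2B) enzyme activity, measured with DiFMUP as the substrate; in other assays of this panel Not Active means under 50% inhibition at 10 µM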
Cannabinoid receptor 1 = Cannabinoid receptor 1 (Homo sapiens, UniProt P21554); assay type: cell membranes, Membrane; details: chem-1; further: in other assays of this panel Not Active means under 50% inhibition at 10 µM
Acetylcholinesterase = Acetylcholinesterase (Homo sapiens, UniProt P22303); assay: DRUGMATRIX: Acetylcholinesterase enzyme inhibition (substrate: acetylthiocholine); assay type: cell-based, HEK293; details: Not Active = under 50% inhibition at 10 µM; for IC50: hek293
[2] = target: Epidermal growth factor receptor (Homo sapiens, UniProt P00533); assay: DRUGMATRIX: Protein Tyrosine Kinase, EGF Receptor enzyme inhibition (substrate: Poly(Glu:Tyr)); assay type: cell-based, Insect cells; details: Not Active = under 50% inhibition at 10 µM; for pIC50: read-out: IC50; for IC50: insect cells
[3] = target: Tyrosine-protein kinase Lck (Homo sapiens, UniProt P06239); assay: DRUGMATRIX: Protein Tyrosine Kinase, LCK enzyme inhibition (substrate: Poly(Glu:Tyr)); assay type: cell-based, Insect cells; details: Not Active = under 50% inhibition at 10 µM; for IC50: insect cells
[4] = target: T2, C-C chemokine receptor type 4 (Homo sapiens, UniProt P51679); assay type: cell membranes, Membrane; details: chem-1; further: in other assays of this panel Not Active means under 50% inhibition at 10 µM
T2 sequence (P51679 whole entry): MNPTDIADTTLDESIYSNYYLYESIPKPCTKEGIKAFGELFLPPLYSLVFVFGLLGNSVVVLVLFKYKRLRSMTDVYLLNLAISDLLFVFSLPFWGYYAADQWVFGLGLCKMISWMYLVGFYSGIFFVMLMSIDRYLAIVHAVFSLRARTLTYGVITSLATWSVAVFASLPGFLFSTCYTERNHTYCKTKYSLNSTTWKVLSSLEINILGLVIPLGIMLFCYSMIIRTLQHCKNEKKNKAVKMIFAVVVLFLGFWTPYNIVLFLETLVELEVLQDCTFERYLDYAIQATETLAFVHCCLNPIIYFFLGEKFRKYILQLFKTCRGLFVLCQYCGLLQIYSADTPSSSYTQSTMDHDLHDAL

[5] = target: T3, C-X-C chemokine receptor type 2 (Homo sapiens, UniProt P25025); assay type: cell membranes, Membrane; details: cho-k1; further: in other assays of this panel Not Active means under 50% inhibition at 10 µM
T3 sequence (P25025 whole entry): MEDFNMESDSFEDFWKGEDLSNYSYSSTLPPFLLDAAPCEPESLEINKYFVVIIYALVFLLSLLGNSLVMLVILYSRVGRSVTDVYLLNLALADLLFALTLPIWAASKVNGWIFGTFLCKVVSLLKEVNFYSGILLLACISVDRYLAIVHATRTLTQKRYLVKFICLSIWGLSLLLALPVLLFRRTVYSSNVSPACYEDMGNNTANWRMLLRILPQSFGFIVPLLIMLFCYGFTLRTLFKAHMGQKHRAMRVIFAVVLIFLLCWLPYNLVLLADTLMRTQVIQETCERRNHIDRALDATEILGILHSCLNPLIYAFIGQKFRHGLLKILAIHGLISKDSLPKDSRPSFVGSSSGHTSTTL

Vasopressin V1a receptor = Vasopressin V1a receptor (Homo sapiens, UniProt P37288); assay type: cell membranes, Membrane; details: hek293; further: in other assays of this panel Not Active means under 50% inhibition at 10 µM
[6] = target: C-C chemokine receptor type 2 (Homo sapiens, UniProt P41597); assay type: cell membranes, CHO-K1, Membrane; details: cho-k1; further: in other assays of this panel Not Active means under 50% inhibition at 10 µM
[7] = target: Delta-type opioid receptor (Homo sapiens, UniProt P41143); assay type: cell membranes, HEK293, Membrane; details: for IC50: hek293
[8] = target: T4, Muscarinic acetylcholine receptor M2 (Homo sapiens, UniProt P08172); assay type: cell membranes, CHO-K1, Membrane; details: for pIC50: read-out: IC50; for pKi: read-out: Ki; for IC50: cho-k1
T4 sequence (P08172 whole entry): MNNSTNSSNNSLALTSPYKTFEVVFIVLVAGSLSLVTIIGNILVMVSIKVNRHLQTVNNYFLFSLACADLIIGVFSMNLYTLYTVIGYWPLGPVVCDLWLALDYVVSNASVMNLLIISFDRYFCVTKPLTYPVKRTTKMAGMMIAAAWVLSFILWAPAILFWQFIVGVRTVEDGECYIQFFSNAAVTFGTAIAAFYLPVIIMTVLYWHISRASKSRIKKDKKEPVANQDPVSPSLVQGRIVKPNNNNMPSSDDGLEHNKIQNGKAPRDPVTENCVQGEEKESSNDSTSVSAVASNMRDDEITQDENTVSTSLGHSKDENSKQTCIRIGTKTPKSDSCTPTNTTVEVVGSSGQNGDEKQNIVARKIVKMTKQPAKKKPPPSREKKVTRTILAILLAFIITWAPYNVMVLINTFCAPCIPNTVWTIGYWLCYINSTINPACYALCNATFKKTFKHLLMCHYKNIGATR

[9] = target: 5-hydroxytryptamine receptor 6 (Homo sapiens, UniProt P50406); assay type: cell membranes, HeLa, Membrane; details: for pIC50: read-out: IC50; for pKi: read-out: Ki; for IC50: hela
Melanocortin receptor 4 = Melanocortin receptor 4 (Homo sapiens, UniProt P32245); assay type: cell membranes, Membrane; details: hek293; further: in other assays of this panel Not Active means under 50% inhibition at 10 µM
[10] = target: 5-hydroxytryptamine receptor 2B (Homo sapiens, UniProt P41595); assay type: cell membranes, CHO-K1, Membrane; details: for pIC50: read-out: IC50; for pKi: read-out: Ki
[11] = DRUGMATRIX: Glutamate, AMPA radioligand binding (ligand: [3H] AMPA); assay type: cell membranes, Rattus norvegicus, Wistar, Cerebral cortex, Membrane; details: Not Active = under 50% inhibition at 10 µM
[12] = DRUGMATRIX: Nicotinic Acetylcholine radioligand binding (ligand: [125I] Epibatidine); assay type: cell membranes, Membrane; details: imr-32; Not Active = under 50% inhibition at 10 µM
[13] = DRUGMATRIX: Glutamate, NMDA, Agonism radioligand binding (ligand: [3H] CGP-39653); assay type: cell membranes, Rattus norvegicus, Wistar, Cerebral cortex, Membrane; details: Not Active = under 50% inhibition at 10 µM

Acetylcholinesterase, sequence (P22303 whole entry): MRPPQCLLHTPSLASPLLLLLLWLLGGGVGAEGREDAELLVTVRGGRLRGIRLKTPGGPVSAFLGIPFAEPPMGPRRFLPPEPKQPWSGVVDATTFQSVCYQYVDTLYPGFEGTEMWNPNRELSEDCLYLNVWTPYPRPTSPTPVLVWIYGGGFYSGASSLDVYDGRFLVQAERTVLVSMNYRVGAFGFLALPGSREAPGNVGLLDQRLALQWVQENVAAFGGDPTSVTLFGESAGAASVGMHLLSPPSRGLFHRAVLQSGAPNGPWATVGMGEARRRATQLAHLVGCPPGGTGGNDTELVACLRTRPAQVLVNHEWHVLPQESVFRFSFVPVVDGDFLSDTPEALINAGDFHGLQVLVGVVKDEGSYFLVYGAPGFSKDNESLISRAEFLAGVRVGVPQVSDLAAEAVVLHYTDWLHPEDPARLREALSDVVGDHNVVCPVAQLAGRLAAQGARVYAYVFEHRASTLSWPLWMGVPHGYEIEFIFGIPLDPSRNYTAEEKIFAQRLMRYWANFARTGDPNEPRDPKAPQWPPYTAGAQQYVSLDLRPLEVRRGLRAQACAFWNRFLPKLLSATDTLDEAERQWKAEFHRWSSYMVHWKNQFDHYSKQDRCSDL
Vasopressin V1a receptor, sequence (P37288 whole entry): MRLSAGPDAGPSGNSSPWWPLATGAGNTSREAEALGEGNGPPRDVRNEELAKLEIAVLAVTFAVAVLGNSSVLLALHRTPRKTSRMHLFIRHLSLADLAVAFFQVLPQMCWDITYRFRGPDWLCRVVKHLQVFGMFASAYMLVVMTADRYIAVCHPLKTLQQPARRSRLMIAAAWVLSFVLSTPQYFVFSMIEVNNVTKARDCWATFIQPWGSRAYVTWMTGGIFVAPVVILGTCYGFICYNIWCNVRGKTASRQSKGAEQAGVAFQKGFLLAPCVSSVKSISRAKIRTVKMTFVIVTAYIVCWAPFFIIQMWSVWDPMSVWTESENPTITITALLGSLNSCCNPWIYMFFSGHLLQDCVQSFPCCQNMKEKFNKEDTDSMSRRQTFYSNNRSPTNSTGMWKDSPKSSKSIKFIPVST
Epidermal growth factor receptor, sequence (P00533 whole entry): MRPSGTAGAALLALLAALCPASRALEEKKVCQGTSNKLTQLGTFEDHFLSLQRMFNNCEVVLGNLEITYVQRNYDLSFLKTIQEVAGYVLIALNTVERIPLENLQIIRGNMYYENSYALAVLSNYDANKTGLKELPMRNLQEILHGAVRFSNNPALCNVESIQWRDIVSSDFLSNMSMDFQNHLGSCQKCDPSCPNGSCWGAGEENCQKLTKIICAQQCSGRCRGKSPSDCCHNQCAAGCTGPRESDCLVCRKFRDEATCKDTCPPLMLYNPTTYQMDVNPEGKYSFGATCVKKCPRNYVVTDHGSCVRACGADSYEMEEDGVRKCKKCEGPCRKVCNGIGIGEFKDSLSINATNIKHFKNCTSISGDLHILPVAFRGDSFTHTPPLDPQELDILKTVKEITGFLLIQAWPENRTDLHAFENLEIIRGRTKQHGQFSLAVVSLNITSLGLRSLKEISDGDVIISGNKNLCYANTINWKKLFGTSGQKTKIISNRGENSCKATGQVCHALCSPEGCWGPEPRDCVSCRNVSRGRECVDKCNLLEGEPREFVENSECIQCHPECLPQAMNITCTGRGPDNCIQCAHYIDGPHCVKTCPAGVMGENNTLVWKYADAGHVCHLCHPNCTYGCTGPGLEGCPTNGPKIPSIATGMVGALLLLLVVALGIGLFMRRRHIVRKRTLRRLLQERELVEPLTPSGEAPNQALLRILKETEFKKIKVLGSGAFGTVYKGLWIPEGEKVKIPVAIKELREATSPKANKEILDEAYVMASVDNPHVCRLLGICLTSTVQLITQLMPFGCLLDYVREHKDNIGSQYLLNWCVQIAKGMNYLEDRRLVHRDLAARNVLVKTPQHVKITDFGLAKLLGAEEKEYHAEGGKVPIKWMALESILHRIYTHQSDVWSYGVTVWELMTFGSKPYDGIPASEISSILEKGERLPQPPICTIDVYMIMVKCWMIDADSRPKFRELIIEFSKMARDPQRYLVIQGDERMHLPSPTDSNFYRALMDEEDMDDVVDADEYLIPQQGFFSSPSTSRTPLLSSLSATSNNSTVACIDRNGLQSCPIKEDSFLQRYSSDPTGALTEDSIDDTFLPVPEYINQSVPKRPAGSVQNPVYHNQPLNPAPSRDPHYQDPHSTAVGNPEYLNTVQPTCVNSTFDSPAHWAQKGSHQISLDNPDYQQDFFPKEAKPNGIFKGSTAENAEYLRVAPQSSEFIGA
Tyrosine-protein kinase Lck, sequence (P06239 whole entry): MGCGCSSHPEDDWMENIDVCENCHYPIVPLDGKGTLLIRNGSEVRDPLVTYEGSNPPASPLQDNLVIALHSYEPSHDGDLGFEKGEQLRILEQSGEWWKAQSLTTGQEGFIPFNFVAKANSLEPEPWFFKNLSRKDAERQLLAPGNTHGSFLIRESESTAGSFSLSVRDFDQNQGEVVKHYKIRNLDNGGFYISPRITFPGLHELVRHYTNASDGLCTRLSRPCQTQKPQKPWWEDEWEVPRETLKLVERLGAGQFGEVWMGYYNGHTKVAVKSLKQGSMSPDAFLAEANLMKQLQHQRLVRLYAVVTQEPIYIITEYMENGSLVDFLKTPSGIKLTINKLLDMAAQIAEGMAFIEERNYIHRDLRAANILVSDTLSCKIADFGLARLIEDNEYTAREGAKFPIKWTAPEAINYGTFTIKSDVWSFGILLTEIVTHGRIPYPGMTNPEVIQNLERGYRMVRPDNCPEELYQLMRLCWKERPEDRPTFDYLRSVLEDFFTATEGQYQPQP
C-C chemokine receptor type 2, sequence (P41597 whole entry): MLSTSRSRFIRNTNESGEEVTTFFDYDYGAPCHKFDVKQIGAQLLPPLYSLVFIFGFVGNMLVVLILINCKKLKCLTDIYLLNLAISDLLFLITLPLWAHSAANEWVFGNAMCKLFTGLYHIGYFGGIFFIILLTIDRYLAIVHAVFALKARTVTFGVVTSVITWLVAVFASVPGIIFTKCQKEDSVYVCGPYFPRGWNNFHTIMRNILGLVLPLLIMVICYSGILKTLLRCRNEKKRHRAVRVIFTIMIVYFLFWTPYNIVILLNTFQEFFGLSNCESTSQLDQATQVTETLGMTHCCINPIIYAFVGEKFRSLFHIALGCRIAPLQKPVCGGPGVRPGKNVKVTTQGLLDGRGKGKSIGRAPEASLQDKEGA
Insulin receptor, sequence (P15127 27-759 limits assumed): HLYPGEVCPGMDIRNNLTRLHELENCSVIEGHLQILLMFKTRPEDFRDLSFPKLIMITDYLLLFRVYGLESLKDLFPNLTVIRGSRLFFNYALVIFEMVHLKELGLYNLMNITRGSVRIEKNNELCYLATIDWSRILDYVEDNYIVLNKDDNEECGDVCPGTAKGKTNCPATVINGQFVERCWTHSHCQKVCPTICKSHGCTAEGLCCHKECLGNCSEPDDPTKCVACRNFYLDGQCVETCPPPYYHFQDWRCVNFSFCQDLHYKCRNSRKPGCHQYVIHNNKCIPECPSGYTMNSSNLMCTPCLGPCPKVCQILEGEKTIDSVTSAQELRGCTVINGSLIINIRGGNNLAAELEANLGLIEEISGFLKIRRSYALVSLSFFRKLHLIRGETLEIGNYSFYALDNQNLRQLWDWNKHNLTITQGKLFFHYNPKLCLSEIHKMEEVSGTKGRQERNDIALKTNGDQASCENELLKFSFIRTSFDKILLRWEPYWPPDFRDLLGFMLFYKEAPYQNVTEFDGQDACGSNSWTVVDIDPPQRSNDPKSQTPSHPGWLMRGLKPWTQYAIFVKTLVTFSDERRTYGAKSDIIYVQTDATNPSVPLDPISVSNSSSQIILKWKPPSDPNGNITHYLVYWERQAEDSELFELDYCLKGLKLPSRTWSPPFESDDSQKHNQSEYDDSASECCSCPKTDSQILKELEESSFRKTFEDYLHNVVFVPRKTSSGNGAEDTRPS
Insulin receptor, sequence (P15127 764-1383 limits assumed): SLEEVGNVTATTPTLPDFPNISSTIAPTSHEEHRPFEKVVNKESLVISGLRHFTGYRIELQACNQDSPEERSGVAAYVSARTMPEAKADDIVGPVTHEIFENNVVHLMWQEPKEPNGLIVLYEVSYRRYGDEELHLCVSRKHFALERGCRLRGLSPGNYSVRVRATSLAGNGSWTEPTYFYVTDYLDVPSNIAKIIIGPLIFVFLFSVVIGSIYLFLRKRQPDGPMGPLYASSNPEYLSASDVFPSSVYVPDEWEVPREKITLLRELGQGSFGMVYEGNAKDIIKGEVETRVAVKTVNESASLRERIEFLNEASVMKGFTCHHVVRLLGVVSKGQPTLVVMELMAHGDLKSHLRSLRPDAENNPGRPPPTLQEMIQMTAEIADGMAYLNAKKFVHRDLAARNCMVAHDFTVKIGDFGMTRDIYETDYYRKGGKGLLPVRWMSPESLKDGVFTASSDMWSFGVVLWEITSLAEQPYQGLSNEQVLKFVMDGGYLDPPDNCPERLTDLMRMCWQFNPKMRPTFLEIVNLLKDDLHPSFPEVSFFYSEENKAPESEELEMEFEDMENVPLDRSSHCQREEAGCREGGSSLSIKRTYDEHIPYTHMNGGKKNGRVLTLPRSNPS
5-hydroxytryptamine receptor 6, sequence (P50406 whole entry): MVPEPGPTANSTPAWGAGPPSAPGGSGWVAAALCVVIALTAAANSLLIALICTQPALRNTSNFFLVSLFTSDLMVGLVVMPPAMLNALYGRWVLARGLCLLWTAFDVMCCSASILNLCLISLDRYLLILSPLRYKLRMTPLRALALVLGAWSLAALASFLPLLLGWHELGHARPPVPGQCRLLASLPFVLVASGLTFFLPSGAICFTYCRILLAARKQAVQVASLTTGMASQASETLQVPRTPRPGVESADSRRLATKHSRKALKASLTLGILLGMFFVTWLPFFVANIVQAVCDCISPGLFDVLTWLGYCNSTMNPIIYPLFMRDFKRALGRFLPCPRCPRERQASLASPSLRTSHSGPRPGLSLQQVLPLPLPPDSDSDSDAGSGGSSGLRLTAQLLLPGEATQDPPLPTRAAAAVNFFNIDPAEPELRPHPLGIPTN

Row | SMILES | IC50 (Insulin receptor) | IC50 (Thromboxane-A synthase) | IC50 [1] | IC50 (Cannabinoid receptor 1) | IC50 (Acetylcholinesterase) | pIC50 [2] | IC50 [4] | IC50 [5] | IC50 (Vasopressin V1a receptor) | IC50 [6] | IC50 [7] | pIC50 [9] | pKi [9] | IC50 [2] | IC50 [3] | IC50 (Melanocortin receptor 4) | IC50 [8] | IC50 [9] | other results
1 | COc1ccc(CCN2CCC(Nc3nc4ccccc4n3Cc3ccc(F)cc3)CC2)cc1 [ASTEMIZOLE] | Not Active | Not Active | Not Active | Not Active | Not Active | 5.22 | Not Active | Not Active | Not Active | Not Active | – | – | – | – | – | – | – | – | pIC50 ([3]; read-out: IC50): 4.70
2 | CN(C)CCCN1c2ccccc2CCc2ccc(Cl)cc21 [CLOMIPRAMINE] | Not Active | Not Active | Not Active | Not Active | Not Active | – | Not Active | Not Active | Not Active | Not Active | Not Active | 6.61 | 6.94 | Not Active | Not Active | Not Active | – | – | pIC50 [8]: 6.62; pKi [8]: 7.07; pIC50 [10]: 6.62; pKi [10]: 6.82
3 | Clc1ccccc1C(c1ccccc1)(c1ccccc1)n1ccnc1 [CLOTRIMAZOLE] | Not Active | – | Not Active | Not Active | – | 4.16 | Not Active | Not Active | Not Active | Not Active | – | 4.90 | 5.23 | – | Not Active | Not Active | – | – | pIC50 ([7]; read-out: IC50): 5.30; pKi ([7]; read-out: Ki): 5.76; pIC50 [8]: 4.84; pKi [8]: 5.29; pIC50 (Thromboxane-A synthase): 7.85; pIC50 (Acetylcholinesterase; read-out: IC50): 4.71; pIC50 [10]: 4.94; pKi [10]: 5.13
4 | O=C(CCCN1CCC(O)(c2ccc(Cl)cc2)CC1)c1ccc(F)cc1 [HALOPERIDOL] | Not Active | Not Active | Not Active | Not Active | Not Active | – | Not Active | Not Active | Not Active | Not Active | Not Active | – | – | Not Active | Not Active | Not Active | Not Active | Not Active | –
5 | CN1CCN2c3ccccc3Cc3ccccc3C2C1 (stereo not drawn) [MIANSERIN] | Not Active | Not Active | Not Active | Not Active | Not Active | – | Not Active | Not Active | Not Active | Not Active | Not Active | – | – | Not Active | Not Active | Not Active | – | – | –
6 | O=C1c2c(O)ccc(O)c2C(=O)c2c(NCCNCCO)ccc(NCCNCCO)c21 [MITOXANTRONE] | Not Active | Not Active | Not Active | Not Active | Not Active | 5.27 | Not Active | Not Active | Not Active | Not Active | Not Active | – | – | – | Not Active | Not Active | – | Not Active | IC50 [11]: Not Active; Ki [11]: Not Active; IC50 [12]: Not Active; Ki [12]: Not Active; IC50 [13]: Not Active; Ki [13]: Not Active; IC50 ([10]; cho-k1): Not Active
7 | CC(C)(O)c1ccccc1CC[C@@H](SCC1(CC(=O)O)CC1)c1cccc(/C=C/c2ccc3ccc(Cl)cc3n2)c1 [MONTELUKAST] | Not Active | – | Not Active | Not Active | Not Active | 5.50 | Not Active | Not Active | Not Active | Not Active | – | – | – | – | Not Active | Not Active | Not Active | Not Active | pIC50 (Thromboxane-A synthase): 5.82
8 | CSc1ccc2c(c1)N(CCC1CCCCN1C)c1ccccc1S2 (stereo not drawn) [THIORIDAZINE] | Not Active | Not Active | Not Active | Not Active | Not Active | 5.53 | Not Active | Not Active | Not Active | Not Active | Not Active | 7.15 | 7.48 | – | Not Active | Not Active | – | – | –
9 | COC(=O)[C@@H]1[C@H]2C[C@H]3c4[nH]c5ccccc5c4CCN3C[C@@H]2CC[C@@H]1O [YOHIMBINE] | Not Active | Not Active | Not Active | Not Active | Not Active | – | Not Active | Not Active | Not Active | Not Active | Not Active | – | – | Not Active | Not Active | Not Active | Not Active | – | IC50 [11]: Not Active; Ki [11]: Not Active; IC50 [12]: Not Active; Ki [12]: Not Active; IC50 [13]: Not Active; Ki [13]: Not Active
